What all share (assay): Further analysis of a plurality of inhibitors and a plurality of kinases (Table 5 inhibition results)
Type in all cases: biochemical
What all share (set-up): scale not given here

Test [1] deals with kinases of Table 5 (Homo sapiens, UniProt Q8IU85). To be noted: inhibitor 100 uM; for Inhibition level: kinase LOC57118; for Inhibition Results (Level): kinase LOC57118 (Part II, plate D2, Domain 1). The source says: (§1) The wash solution is then discarded.
The target in test [2] is kinases of Table 5 (Homo sapiens, UniProt P11309).
Chain of kinases of Table 5 (Homo sapiens, UniProt P11309) (P11309 whole entry): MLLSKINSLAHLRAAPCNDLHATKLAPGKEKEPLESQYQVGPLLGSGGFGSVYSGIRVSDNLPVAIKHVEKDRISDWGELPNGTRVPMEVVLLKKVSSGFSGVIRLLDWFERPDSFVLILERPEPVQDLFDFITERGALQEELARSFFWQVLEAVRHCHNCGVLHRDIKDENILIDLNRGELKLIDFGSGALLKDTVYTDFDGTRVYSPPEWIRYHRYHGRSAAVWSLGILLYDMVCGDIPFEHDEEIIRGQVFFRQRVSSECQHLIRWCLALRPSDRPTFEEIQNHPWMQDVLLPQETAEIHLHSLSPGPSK
Source text: as §1

Test [3] has as its target T1, kinases of Table 5 (Homo sapiens, UniProt Q8IVH8).
T1 sequence (Q8IVH8 1-894): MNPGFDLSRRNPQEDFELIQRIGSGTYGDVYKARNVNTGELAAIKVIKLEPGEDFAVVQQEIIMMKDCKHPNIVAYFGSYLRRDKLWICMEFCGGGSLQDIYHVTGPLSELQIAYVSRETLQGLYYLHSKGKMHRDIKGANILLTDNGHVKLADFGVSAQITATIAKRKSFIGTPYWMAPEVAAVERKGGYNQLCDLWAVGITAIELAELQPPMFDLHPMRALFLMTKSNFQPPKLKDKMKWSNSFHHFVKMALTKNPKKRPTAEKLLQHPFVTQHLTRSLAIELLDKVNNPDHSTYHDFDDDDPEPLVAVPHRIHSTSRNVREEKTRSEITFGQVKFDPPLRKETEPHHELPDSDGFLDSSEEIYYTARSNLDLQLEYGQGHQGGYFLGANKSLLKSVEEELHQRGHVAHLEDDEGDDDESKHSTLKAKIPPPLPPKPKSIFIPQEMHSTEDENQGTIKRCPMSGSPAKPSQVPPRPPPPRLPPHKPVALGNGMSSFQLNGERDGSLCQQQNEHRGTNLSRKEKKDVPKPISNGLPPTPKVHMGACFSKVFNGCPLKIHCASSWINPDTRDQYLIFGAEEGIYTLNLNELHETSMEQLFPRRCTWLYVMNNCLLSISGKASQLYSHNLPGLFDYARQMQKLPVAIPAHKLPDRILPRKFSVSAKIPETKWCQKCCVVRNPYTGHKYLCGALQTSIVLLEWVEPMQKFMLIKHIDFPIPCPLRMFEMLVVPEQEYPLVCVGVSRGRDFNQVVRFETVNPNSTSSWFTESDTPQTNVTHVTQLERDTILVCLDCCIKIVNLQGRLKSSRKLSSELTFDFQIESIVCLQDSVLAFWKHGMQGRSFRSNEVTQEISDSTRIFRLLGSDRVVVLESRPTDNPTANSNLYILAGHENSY
To be noted: kinase MAP4K3 (Part I, plate C5, Domain 1); inhibitor 100 uM.
Source text: as §1

Test [4] has as its target T2, kinases of Table 5 (Homo sapiens, UniProt P45985).
T2 sequence (P45985 1-399): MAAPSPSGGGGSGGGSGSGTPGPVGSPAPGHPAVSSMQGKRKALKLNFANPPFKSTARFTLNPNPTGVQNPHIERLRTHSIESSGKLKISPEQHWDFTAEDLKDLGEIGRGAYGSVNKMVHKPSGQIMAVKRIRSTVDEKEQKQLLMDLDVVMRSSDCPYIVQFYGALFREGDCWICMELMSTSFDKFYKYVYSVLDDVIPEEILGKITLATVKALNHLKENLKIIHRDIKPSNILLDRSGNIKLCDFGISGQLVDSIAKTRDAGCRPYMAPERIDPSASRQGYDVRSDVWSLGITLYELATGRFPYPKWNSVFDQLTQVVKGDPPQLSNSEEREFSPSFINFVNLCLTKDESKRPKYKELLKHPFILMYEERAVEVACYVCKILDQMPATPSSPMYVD
Source text: as §1

In test [5] the target is T3, kinases of Table 5 (Homo sapiens, UniProt Q99759).
T3 sequence (Q99759 1-626): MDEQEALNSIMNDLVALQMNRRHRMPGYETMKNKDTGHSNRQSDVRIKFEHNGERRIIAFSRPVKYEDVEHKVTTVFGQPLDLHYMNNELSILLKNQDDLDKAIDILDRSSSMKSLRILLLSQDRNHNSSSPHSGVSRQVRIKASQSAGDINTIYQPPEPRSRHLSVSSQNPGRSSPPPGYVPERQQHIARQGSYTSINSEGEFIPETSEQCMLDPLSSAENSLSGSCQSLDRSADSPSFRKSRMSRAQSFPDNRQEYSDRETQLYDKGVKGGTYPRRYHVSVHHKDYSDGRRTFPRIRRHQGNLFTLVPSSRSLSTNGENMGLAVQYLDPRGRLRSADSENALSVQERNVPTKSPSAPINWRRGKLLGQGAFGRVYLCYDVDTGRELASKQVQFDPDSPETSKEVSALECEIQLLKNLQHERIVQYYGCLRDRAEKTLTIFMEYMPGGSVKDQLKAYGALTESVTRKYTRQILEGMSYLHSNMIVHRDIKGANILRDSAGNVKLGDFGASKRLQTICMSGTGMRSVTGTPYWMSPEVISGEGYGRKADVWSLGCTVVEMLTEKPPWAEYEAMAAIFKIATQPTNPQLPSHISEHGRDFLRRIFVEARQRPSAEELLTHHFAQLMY
To be noted: kinase MAP3K3 (Part I, plate A1, Domain 0).
Source text: as §1

Test [6] has as its target kinases of Table 5 (Homo sapiens, UniProt P09769). To be noted: for Inhibition level: kinase FGR; for Inhibition Results (Level): kinase FGR (Part II, plate B10, Domain 0).
Source text: as §1

Where [7] appears, read: kinase PIM1 (Part I, plate C2, Domain 1), inhibitor 100 uM.
[8] abbreviates: kinase MAP2K4 (Part I, plate E6, Domain 1), inhibitor 100 uM.

Where two headings read alike, the source gives them in different places.

Chain of kinases of Table 5 (Homo sapiens, UniProt P09769) (P09769 whole entry): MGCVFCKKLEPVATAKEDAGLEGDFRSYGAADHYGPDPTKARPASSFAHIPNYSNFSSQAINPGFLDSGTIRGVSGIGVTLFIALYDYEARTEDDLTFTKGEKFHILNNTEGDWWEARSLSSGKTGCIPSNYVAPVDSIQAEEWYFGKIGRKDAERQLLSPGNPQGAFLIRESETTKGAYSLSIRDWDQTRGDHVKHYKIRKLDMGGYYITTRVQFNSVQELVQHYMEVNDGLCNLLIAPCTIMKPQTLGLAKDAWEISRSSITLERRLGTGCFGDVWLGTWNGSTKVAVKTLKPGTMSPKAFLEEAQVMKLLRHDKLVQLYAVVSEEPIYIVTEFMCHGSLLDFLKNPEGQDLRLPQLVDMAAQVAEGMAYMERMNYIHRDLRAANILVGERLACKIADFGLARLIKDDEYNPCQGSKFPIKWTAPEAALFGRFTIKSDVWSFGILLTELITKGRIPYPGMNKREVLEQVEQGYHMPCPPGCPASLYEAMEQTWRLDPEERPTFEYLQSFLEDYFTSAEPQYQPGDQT
Chain of kinases of Table 5 (Homo sapiens, UniProt Q8IU85) (Q8IU85 whole entry): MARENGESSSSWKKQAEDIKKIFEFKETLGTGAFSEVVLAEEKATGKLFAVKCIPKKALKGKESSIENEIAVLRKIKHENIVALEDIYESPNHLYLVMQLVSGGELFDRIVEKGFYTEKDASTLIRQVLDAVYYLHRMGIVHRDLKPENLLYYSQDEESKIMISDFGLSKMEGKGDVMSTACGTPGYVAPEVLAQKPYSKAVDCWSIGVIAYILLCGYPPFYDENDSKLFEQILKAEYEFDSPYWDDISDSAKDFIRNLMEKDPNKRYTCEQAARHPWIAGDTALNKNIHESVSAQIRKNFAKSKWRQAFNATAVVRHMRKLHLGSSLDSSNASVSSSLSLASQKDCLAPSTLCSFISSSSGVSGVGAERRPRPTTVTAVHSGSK

With `N#C/C(=C/c1ccc(O)c(O)c1)C(=O)NCc1ccccc1` [AG 490], the Inhibition level at kinases of Table 5 [1] is 1; at kinases of Table 5 [6] (inhibitor 100 uM), 2. Also, the “Inhibition Results (Level)” value on kinases of Table 5 [2] (setting [7]) is on record as 2; on kinases of Table 5 [3], 1; at kinases of Table 5 [4] (setting [8]), 0; on kinases of Table 5 [5] (inhibitor 100 uM) it was 2.

Regarding `COc1cc2ncnc(Nc3cccc(Cl)c3)c2cc1OC` [AG 1478], the Inhibition level at kinases of Table 5 [1] is on record as 0; at kinases of Table 5 [6] (inhibitor 100 uM) it was 2. Further, the “Inhibition Results (Level)” value on kinases of Table 5 [2] (setting [7]) amounted to 1; on kinases of Table 5 [3], 2; on kinases of Table 5 [4] (setting [8]) it was 0; at kinases of Table 5 [5] (inhibitor 100 uM), 2.

For `O=c1c(-c2ccc(O)cc2)coc2cc(O)cc(O)c12` [Genistein], the values for the Inhibition level at kinases of Table 5 [1], on kinases of Table 5 [6] (concentration not given) and at kinases of Table 5 [6] (inhibitor 100 uM) were 0, 2 and 2, respectively. For the same compound, the “Inhibition Results (Level)” value came out at 2 at kinases of Table 5 [2] (setting [7]); 0 at kinases of Table 5 [2] (kinase PIM1 (Part I, plate C2, Domain 1), inhibitor <3.7 mM); 2 on kinases of Table 5 [3]; 2 on kinases of Table 5 [4] (setting [8]); 0 at kinases of Table 5 [4] (kinase MAP2K4 (Part I, plate E6, Domain 1), inhibitor <3.7 mM); 2 at kinases of Table 5 [5] (inhibitor 100 uM). Besides, the “Inhibition Results (Level)” value on kinases of Table 5 [5] (inhibitor <3.7 mM) was 2.

Take `O=S(=O)(NCCNC/C=C/c1ccc(Br)cc1)c1cccc2cnccc12` [H-89]: the “Inhibition Results (Level)” value at kinases of Table 5 [1] is 1; on kinases of Table 5 [2] (setting [7]) it was 2; on kinases of Table 5 [3] it was 1; at kinases of Table 5 [4] (setting [8]), 1; on kinases of Table 5 [5] (inhibitor 100 uM), 2; on kinases of Table 5 [6] (inhibitor 100 uM), 2.

On to `CC(C)(C)n1nc(-c2ccc(Cl)cc2)c2c(N)ncnc21` [PP2], for which the results for the Inhibition level at kinases of Table 5 [1] and on kinases of Table 5 [6] (inhibitor 100 uM) were 0 and 2, respectively. Besides, the “Inhibition Results (Level)” value on kinases of Table 5 [2] (setting [7]), on kinases of Table 5 [3], at kinases of Table 5 [4] (setting [8]) and at kinases of Table 5 [5] (inhibitor 100 uM) was 2 in each case.

For the compound `O=c1c(O)c(-c2ccc(O)c(O)c2)oc2cc(O)cc(O)c12` [Quercetin], the “Inhibition Results (Level)” value at kinases of Table 5 [1] was 0; at kinases of Table 5 [3] it was 1; at kinases of Table 5 [4] (setting [8]) it was 0; on kinases of Table 5 [5] (inhibitor 100 uM), 0; at kinases of Table 5 [6] (inhibitor 100 uM), 2.

Turning to `Cn1cc(C2=C(c3cn(CCCSC(=N)N)c4ccccc34)C(=O)NC2=O)c2ccccc21` [Ro-31-8220], the Inhibition level at kinases of Table 5 [1] is 0; on kinases of Table 5 [6] (concentration not given), 2; at kinases of Table 5 [6] (inhibitor 100 uM) it was 2. Also, the “Inhibition Results (Level)” value was found to be 2 on kinases of Table 5 [2] (kinase PIM1 (Part I, plate C2, Domain 1), inhibitor 90 uM); 0 on kinases of Table 5 [2] (setting [7]); 2 at kinases of Table 5 [3]; 0 at kinases of Table 5 [4] (kinase MAP2K4 (Part I, plate E6, Domain 1), inhibitor 90 uM); 1 on kinases of Table 5 [4] (setting [8]); 2 at kinases of Table 5 [5] (inhibitor 90 uM). The “Inhibition Results (Level)” value on kinases of Table 5 [5] (inhibitor 100 uM) is recorded as 0.

For `CC(=O)c1c(O)c(C)c(O)c(Cc2c(O)c3c(c(C(=O)/C=C/c4ccccc4)c2O)OC(C)(C)C=C3)c1O` [Rottlerin (Mallotoxin)], the “Inhibition Results (Level)” value was 0 at kinases of Table 5 [1]; 2 at kinases of Table 5 [2] (setting [7]); 1 at kinases of Table 5 [3]; 1 at kinases of Table 5 [4] (setting [8]); 2 on kinases of Table 5 [5] (inhibitor 100 uM); 2 at kinases of Table 5 [6] (inhibitor 100 uM).

As for `CN[C@@H]1C[C@H]2O[C@@](C)([C@@H]1OC)n1c3ccccc3c3c4c(c5c6ccccc6n2c5c31)C(=O)NC4` [Staurosporine], the “Inhibition Results (Level)” value is recorded as 2 on kinases of Table 5 [2], 0 on kinases of Table 5 [4] and 2 on kinases of Table 5 [5] (inhibitor 21.5 uM). Also, the Inhibition level on kinases of Table 5 [6] (concentration not given) is listed as 2.

The values are drawn from US20090099029A1, “Methods and substrates for conducting assays” (Invitrogen Corporation, priority 2005, published 2009).
